Assay: Interaction of perfume components with cyclodextrin (CD interaction)
Assay type: physicochemical
Settings: perfume component versus cyclodextrin
Excerpt: Hydrophobic perfume ingredients have a tendency to complex with the cyclodextrins. The degree of hydrophobicity of a perfume ingredient can be correlated with its octanol/water partition coefficient P. The octanol/water partition coefficient of a perfume ingredient is the ratio between its equilibrium concentration in octanol and in water. A perfume ingredient with a greater partition coefficient P is considered to be more hydrophobic. Conversely, a perfume ingredient with a smaller partition coefficient P is considered to be more hydrophilic. […].
The following table illustrates the molecular weight property of some of the preferred perfume versus non-preferred perfume components.

Row | Compound | CD interaction
1 | CC(C=O)Cc1ccc(C(C)C)cc1 (stereo not shown) [Cymal] | strong
2 | CCOC(=O)c1ccccc1C(=O)OCC [Diethyl Phthalate] | weak
3 | CC(=O)OC1CC2CC1C1CC=CC21 (stereo not shown) [Flor Acetate] | strong
4 | CCC(=O)OC1CC2CC1C1CC=CC21 (stereo not shown) [Frutene] | strong
5 | CC1COCc2cc3c(cc21)C(C)(C)C(C)C3(C)C (stereo not shown) [Galaxolide] | weak
6 | CCCCCCOC(=O)c1ccccc1O [Hexyl Salicylate] | weak
7 | CCCCCCC(C=O)=Cc1ccccc1 [Hexyl cinnamic Aldehyde] | weak
8 | CC(=O)C1(C)CC2=C(CCCC2(C)C)CC1C (stereo not shown) [Iso-E Super] | weak
9 | CCCCCCCCCCCCCC(=O)OC(C)C [Iso-propyl Myristate] | weak
10 | CC(=O)C(C)=C(C)C(C)C(C)(C)C (stereo not shown) [Koavone] | strong
11 | CC(C=O)Cc1ccc(C(C)(C)C)cc1 (stereo not shown) [Lilial, p-t-bucinal] | strong
12 | CC(C)(O)CCCC1=CCC(C=O)CC1 (stereo not shown) [Lyral] | weak
13 | CCCCCC1C(=O)CCC1CC(=O)OC (stereo not shown) [Methyl Dihydro Jasmonate] | weak
14 | O=C(Cc1ccccc1)OCCc1ccccc1 [Phenyl-Ethyl-Phenyl Acetate] | weak
15 | CC(=O)OC(C)(C)C1CC=C(C)CC1 (stereo not shown) [Terpinyl Acetate] | significant
16 | CCC(C)(O)CCCC(C)C (stereo not shown) [Tetrahydrolinalol] | significant
17 | CC(=O)OC1CCC(C(C)(C)C)CC1 (stereo not shown) [Vertenex, para-tert-butylcyclohexyl acetate] | strong
18 | CC(=O)/C=C/C1C(C)=CCCC1(C)C (stereo not shown) [a-ionone] | strong
19 | a-Me Ionone | strong
